In patent US20120208750A1, “USE OF PROTEIN KINASE C DELTA (PKCD) INHIBITORS TO TREAT DIABETES, OBESITY, AND HEPATIC STEATOSIS” (JOSLIN DIABETES CENTER, INC., priority 2009, published 2012):

What was measured:
Assay type in all cases: in vivo, mouse
PKCd [1] = assay: PKCd mRNA expression in streptozotocin diabetic mice and insulin- or phlorizin-rescued mice (qPCR); details: STZ diabetic mice; rescue with s.c. insulin pellets or phlorizin 0.4 g/kg s.c. twice daily 10 days, FIG. 2F-G
Procedure: (§1) Expression of PKCd mRNA and protein was assayed in livers mice of various genotypes and under various conditions of diet. For all mRNA studies samples were prepared using RNeasy extraction kit according to the manufacturer protocol (QIAGEN), mRNA was measured by quantitative real-time PCR (qPRC), and results were normalized to TBP. For western blot analysis, 40-50 ug of each extract was loaded per lane. Each lane represents an individual animal. On a normal chow diet at 24 weeks of age, B6 mice have ˜60% higher levels of PKCd mRNA in liver than 129 mice (1.11±0.11 vs. 0.71±0.04, p<0.02) (FIG. 1A). […] These differences in PKCd messenger expression lead to similar differences in expression at the protein level when assessed by Western blot analysis of liver extracts (FIG. 1B). This difference in PKCd expression between B6 and 129 mice was also observed at 6 weeks of age (FIG. 1C), when 129 mice actually weigh slightly more than the B6 (22.1±0.5 vs. 19.8±0.3 g, p<0.001) and have identical glucose and insulin levels.
Streptozotocin treatment was performed as follows. Mice at 6 weeks of age received either daily i.p. injections of sodium citrate (pH 4.3) for controls or STZ (Sigma) resuspended in sodium citrate, 100 μg per g of body weight for three consecutive days. When these mice achieved fed glucose levels of >400 mg/dl for three consecutive days, they were separated into two equal groups. One group was not treated, while the other were treated with s.c. insulin pellets (LinShin, Toronto, ON, Canada), to obtain fed glucose levels of <200 mg/dl for at least three consecutive days. For phlorizin treatment of diabetic mice, male 8-week-old C57B1/6 mice were treated with a single intraperitoneal injection (200 μg/g body weight) of STZ (Sigma). PHZ (Sigma) was dissolved in a solution containing 10% ethanol, 15% DMSO, and 75% saline and was injected subcutaneously at a dose of 0.4 g/kg twice daily for 10 days from 8 days after the STZ injection. Control mice were injected with the same volume of vehicle.

PKCd [2] = assay: PKCd mRNA expression in liver of leptin and/or insulin treated ob/ob mice (qPCR); details: short-term infusion (osmotic pump 4 days; insulin pellets s.c.), FIG. 2C
Procedure: as §1
Although the difference in PKCd expression can be observed between B6 and 129 mice prior to the onset of obesity, obesity and insulin resistance also regulate PKCd. […]

PKCd [3] = assay: Western blot of liver protein expression in tunicamycin-treated mice (ER stress): PKCd; details: 1 μg/g i.p., 2, 4, 6 and 8 hours post-injection, FIG. 2E
Procedure: as §1
To induce an inflammation in vivo, mice were injected intraperitoneally with 100 μg LPS (Escherichia coli 55:B5; Sigma) or sterile saline as control. Mice were sacrificed 18 hours post-injection. […]

Bip = assay: Western blot of liver protein expression in tunicamycin-treated mice (ER stress): Bip; details: 1 μg/g i.p., 2, 4, 6 and 8 hours post-injection, FIG. 2E

## CN(N=O)C(=O)N[C@H]1C(O)O[C@H](CO)[C@@H](O)[C@@H]1O (mixture of isomers) [STZ, streptozotocin]
PKCd [1]
  differences in PKCd expression vs control: no differences

## O=C(CCc1ccc(O)cc1)c1c(O)cc(O)cc1O[C@@H]1O[C@H](CO)[C@@H](O)[C@H](O)[C@H]1O [phlorizin]
PKCd [1]
  differences in PKCd expression vs control: no differences

## insulin
PKCd [2]
  reversal of increased expression of PKCd in liver: not reversed
PKCd [1]
  differences in PKCd expression vs control: no differences

## tunicamycin
PKCd [3]
  PKCd protein expression in liver during onset of ER stress: did not observe any alterations
Bip
  ER stress chaperone protein Bip expression in liver: clearly induced

B1: leptin: recombinant mouse leptin delivered by osmotic pump (protein, UniProt P41160 22-167, looked up)
Leptin: VPIQKVQDDTKTLIKTIVTRINDISHTQSVSAKQRVTGLDFIPGLHPILSLSKMDQTLAVYQQVLTSLPSQNVLQIANDLENLRDLLHLLAFSKSCSLPQTSGLQKPESLDGVLEASLYSTEVVALSRLQGSLQDILQQLDVSPEC
PKCd [2]
  reversal of increased expression of PKCd in liver: not reversed
